According to patent US8748441B2, “Therapeutic uses of quinazolinedione derivatives” (SANOFI, priority 2009, dated 2014):

Columns and labels:
MG7 microglial cells = assay: In vitro model of microglial activation: interleukin-1β secretion by LPS-activated MG7 cells (ELISA); assay type: cell-based, mouse
Protocol: The compounds according to the invention have been evaluated in an in vitro model of microglial activation. After activation by lipopolysaccharide (LPS), the microglial cells secrete large amounts of interleukin-1, which amounts can be quantified by specific assaying in the cell supernatants.
Cultures of microglial cells of the MG7 line derived from the mouse cortex are incubated in the presence of variable concentrations of compounds according to the invention. After incubating at 37° C. for 1 hour, the cells are brought together with LPS, which induces the production of interleukin-1. After treating for 24 h, the amounts of interleukin-1β are measured in the culture supernatants by ELISA assay.

PDE8 = PDE8 enzymatic assay equivalent to that described for PDE7; assay type: biochemical

| IC50 (PDE8) | SMILES | inhibition at 3 µM (MG7 microglial cells; Mus musculus, at 3 μM, MG7 microglial cells activated by LPS, 24 h, read-out: maximum inhibitory effect on secretion of interleukin-1β) | secretion of interleukin-1β by MG7 microglial cells activated by LPS (MG7 microglial cells; variable concentrations, 1 h preincubation, LPS 24 h) |
| --- | --- | --- | --- |
| – | O=CN1CCC(n2c(=O)n(Cc3ccc(-c4cccs4)cc3)c(=O)c3cc(OC(CF)CF)c(F)cc32)CC1 [No. 297, 4-{7-fluoro-6-[2-fluoro-1-(fluoromethyl)ethoxy]-2,4-dioxo-3-(4-(thiophen-2-yl)benzyl)-3,4-dihydroquinazolin-1(2H)-yl}piperidine-1-carbaldehyde] | 47% | significantly decreases, in a concentration-dependent fashion |
| 140 nM | COc1ccc(Cn2c(=O)c3cc(OC(CF)CF)ccc3n(C3CCN(C=O)CC3)c2=O)cc1OC [No. 11, 4-[3-(3,4-dimethoxybenzyl)-6-[2-fluoro-1-(fluoromethyl)ethoxy]-2,4-dioxo-3,4-dihydroquinazolin-1(2H)-yl]piperidine-1-carbaldehyde] | – | – |
| 15 nM | N#Cc1cc(Cn2c(=O)c3cc(OC(CF)CF)ccc3n(C3CCN(C=O)CC3)c2=O)ccc1-c1ccccc1 [No. 294, 4-({6-[2-fluoro-1-(fluoromethyl)ethoxy]-1-(1-formylpiperidin-4-yl)-2,4-dioxo-1,4-dihydroquinazolin-3(2H)-yl}methyl)biphenyl-2-carbonitrile] | – | – |
